Measured values from patent US4281121A, “1,3,4-Thiadiazole-2-carboxylic acid derivatives, process for making the same and fungicidal and nematocidal compositions containing same” (Schering Aktiengesellschaft, priority 1978, dated 1981).
Read-outs that look alike come from different tables or passages of the source.

What was measured:
Piricularia oryzae = type: in vivo; conditions: 5 days
Pythium ultimum = experiment: Threshold concentration test for use of the compounds against Pythium ultimum (infested soil, garden peas); type: in vivo; design: key to root evaluation (1-4): 4: white roots without fungous necrosis; 3: white roots, minor fungous necrosis; 2: brown roots, already more pronounced fungous necrosis; 1: heavy fungous necrosis, roots rotted; conditions: for root evaluation (1-4): 3 weeks; for number of sound peas: 20 grains per dish, 3 weeks at 20-24° C.
Description: Threshold concentration test for use of the compounds against Pythium ultimum
A 20% concentration of certain pulverulent active agents as listed below were mixed in uniform manner into a soil which had been heavily infested by Pythium ultimum. The thus treated soil was then placed into clay dishes of a capacity of 0.5 l earth. Without any intermediate time lapse 20 grain of garden peas (Pisum sativum L. convar. medullare Alef.) of the type "Wunder von Kelvedon" were then seeded into each of the clay dishes. After a cultivation period of three weeks at 20° to 24° C. in a hothouse the number of sound peas was determined and a root evaluation was carried out. The active agents amounts and results appear from the following table.
(§1) The root evaluation was carried out on a scale from 1 to 4 as follows: […]

Helminthosporium gram = conditions: 50 g active agent per 100 kg; about 5 weeks
Description: Treatment of barley seeds infested with Helminthosporium gram
After emergence, the plants were subjected to illumination for 12 hours per day. After about 5 weeks the infested plants were counted and the total number of plants for each test were also counted. The active agents tested were used as pulverulent compositions.

Tilletia caries = experiment: Treatment of oat seeds infested with Tilletia caries (spore germination); type: in vivo
Fusarium avenaceum = experiment: Threshold concentration test in case of Fusarium avenaceum (infested soil, garden peas); type: in vivo; conditions: for number of sound peas: 20 grains per dish, 18 days at 20-24° C.; for root evaluation (1-4): 18 days
Description: Threshold concentration test in case of Fusarium avenaceum
A 20% pulverulent active agent of the type further identified in the table below was mixed in uniform manner with a soil which had been heavily infested with Fusarium avenaceum. The thus treated soil was then placed into clay dishes of a capacity of 0.5 l of earth. Each dish was seeded without any intervening time with 20 grains of garden peas (Pisum sativum L. convar. medullare Alef.) of the type "Wunder von Kelvedon". After a cultivation time of 18 days at 20° to 24° C. in a hot house the number of sound peas was determined and a root evaluation was carried out. The active agents employed, the amounts and results appear from the following table.
as §1

[1] = concentration of active agent 0.1 (percentages)

Row | Structure (SMILES) | % activity (Piricularia oryzae; [1]) [%] | root evaluation (1-4) (Pythium ultimum; 20 mg/l soil) | number of sound peas (Pythium ultimum; 20 mg/l soil) | root evaluation (1-4) (Pythium ultimum; 40 mg/l soil) | number of sound peas (Pythium ultimum; 40 mg/l soil) | root evaluation (1-4) (Pythium ultimum; 80 mg/l soil) | number of sound peas (Pythium ultimum; 80 mg/l soil) | % activity (Helminthosporium gram) [%] | % activity (Tilletia caries; 20 g active agent per 100 kg) [%] | % activity (Tilletia caries; 50 g active agent per 100 kg) [%] | number of sound peas (Fusarium avenaceum; 25 mg/l soil) | root evaluation (1-4) (Fusarium avenaceum; 25 mg/l soil) | number of sound peas (Fusarium avenaceum; 50 mg/l soil) | root evaluation (1-4) (Fusarium avenaceum; 50 mg/l soil) | number of sound peas (Fusarium avenaceum; 100 mg/l soil) | root evaluation (1-4) (Fusarium avenaceum; 100 mg/l soil) | % activity (Tilletia caries; 10 g active agent per 100 kg) [%] | % activity (Piricularia oryzae; concentration of active agent 0.02 (percentages)) [%]
1 | CC(C)S(=O)(=O)c1nnc(C(N)=O)s1 [5-isopropylsulfonyl-1,3,4-thiadiazole-2-carboxamide] | 40 | 4 | 17 | 4 | 18 | 4 | 19 |  |  |  |  |  |  |  |  |  |  | 
2 | COCCCNC(=O)c1nnc(S(C)(=O)=O)s1 [5-methylsulfonyl-1,3,4-thiadiazole-2-carboxylic acid-(3-methoxypropyl)-amide] | 90 | 1 | 9 | 4 | 20 | 4 | 19 |  |  |  |  |  |  |  |  |  |  | 
3 | C=CCNC(=O)c1nnc(S(C)(=O)=O)s1 [5-methylsulfonyl-1,3,4-thiadiazole-2-carboxylic acid-allylamide] | 94 | 4 | 19 | 4 | 18 | 4 | 18 | 100 | 100 | 100 |  |  |  |  |  |  |  | 
4 | CCC[S+]([O-])c1nnc(C(=O)NCC)s1 (stereo not drawn) [5-propylsulfinyl-1,3,4-thiadiazole-2-carboxylic acid-ethylamide] | 90 |  |  |  |  |  |  | 94 |  |  |  |  |  |  |  |  |  | 
5 | CCCNC(=O)c1nnc([S+]([O-])CCC)s1 (stereo not drawn) [5-propylsulfinyl-1,3,4-thiadiazole-2-carboxylic acid-propylamide] | 93 |  |  |  |  |  |  | 94 | 99.3 | 100 |  |  |  |  |  |  |  | 
6 | CCCS(=O)(=O)c1nnc(C#N)s1 [5-propylsulfonyl-1,3,4-thiadiazole-2-carbonitrile] | 99.5 |  |  |  |  |  |  |  | 100 | 100 | 18 | 4 | 20 | 4 | 20 | 4 | 99 | 
7 | C=CCNC(=O)c1nnc(S(=O)(=O)CCC)s1 [5-propylsulfonyl-1,3,4-thiadiazole-2-carboxylic acid-allylamide] | 93 | 3 | 13 | 4 | 15 | 4 | 15 |  | 99.7 | 100 |  |  |  |  |  |  | 99.3 | 
8 | CCCS(=O)(=O)c1nnc(C(=O)NC(C)C)s1 [5-propylsulfonyl-1,3,4-thiadiazole-2-carboxylic acid-isopropylamide] | 90 | 1 | 9 | 4 | 20 | 4 | 18 |  | 99.8 | 100 | 14 | 2 | 16 | 3 | 17 | 4 | 98 | 
9 | CCC(C)S(=O)(=O)c1nnc(C#N)s1 (stereo not drawn) [5-sec.-butylsulfonyl-1,3,4-thiadiazole-2-carbonitrile] | 99.5 |  |  |  |  |  |  |  | 91 | 98 | 20 | 4 | 19 | 4 | 20 | 4 | 75 | 
10 | CN(CCC(N)CC(=O)NC1C=CC(n2ccc(N)nc2=O)OC1C(=O)O)C(=N)N (stereo not drawn) [Blasticidin-S, reference compound] | 97 |  |  |  |  |  |  |  |  |  |  |  |  |  |  |  |  | 90
